# Biological target: 3-isopropylmalate dehydrogenase (Thermus thermophilus, UniProt Q5SIY4)
# Assay: Inhibition of Thermus thermophilus HB8 IPMDH assessed as formation of NADH by Lineweaver-Burke plot analysis
# 3-isopropylmalate dehydrogenase, sequence (Q5SIY4 whole entry): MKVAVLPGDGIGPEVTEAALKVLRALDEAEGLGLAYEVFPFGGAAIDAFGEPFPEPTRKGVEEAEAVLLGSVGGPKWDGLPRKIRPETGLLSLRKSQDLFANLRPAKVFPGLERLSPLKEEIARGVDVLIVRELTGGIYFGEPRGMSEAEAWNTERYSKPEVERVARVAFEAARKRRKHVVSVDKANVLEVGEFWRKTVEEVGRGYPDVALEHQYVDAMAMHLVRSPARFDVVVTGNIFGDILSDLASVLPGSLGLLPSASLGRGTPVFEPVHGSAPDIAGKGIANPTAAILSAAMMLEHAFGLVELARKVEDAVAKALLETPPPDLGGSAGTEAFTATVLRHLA
smiles,measurement,value
CS[C@H](C(=O)O)[C@@H](O)C(=O)O,Ki,62 nM
